The results in this text go back to paper PMC5564622 (Oncotarget, 2017).

One series has as its system LoVo cells. Kind of series: cells. It is filed as cell-based, human.
For another series, the system named is HCT8 cells. Kind of series: cells. It is filed as cell-based, human.
The subject of the next series is HCT8/pcDNA3.1 cells. Description: cells. The format is cell-based, human.
In series [1] the test system is LoVo/ADR cells (ABCB1-overexpressing).
Procedure: (§1) The human colon cancer cell lines LoVo, HCT8, Caco-2 were obtained from the Cell Bank of the Chinese Academy of Sciences. DOX-selected ABCB1-overexpression LoVo/ADR, HCT8/ADR, Caco-2/ADR cell lines were purchased from Shanghai Yan Sheng Industrial Co., LTD. […] All the DOX-selected ABCB1-overexpression cells were seeded in a medium containing 1μM of DOX to maintain their drug resistance phenotype.
The subject of series [2] is HCT8/ADR cells (ABCB1-overexpressing).
Procedure: as §1
Series [3] relates to HCT8/ABCB1 cells (ABCB1-transfected).
Procedure: (§2) HCT8/pcDNA3.1 and HCT8/ABCB1 cells were established by transfecting HCT8 with empty pcDNA3.1 or vector containing the full length ABCB1, and were cultured in medium with 2 mg/ml G418.
Series [4] deals with LoVo/ADR, HCT8/ADR, HCT8/ABCB1 and Caco-2/ADR cells and parental cells. Kind of series: CCK-8 cytotoxicity of BU (non-toxic concentrations). It is filed as cell-based, human. The conditions noted are these: MDR and parental cells.
Series [5] can be described thus: Toxicity analysis in xenograft mice. The format is in vivo, athymic nude mice (BALB/c-nu/nu). As to the method:
Normal tissues (heart, liver, lung, spleen, kidney, intestine) were harvested for H&E histology studies. Venous blood samples were collected in EDTA-coated tubes for hematology studies. Samples were analyzed for white blood cells (WBC), red blood cells (RBC), platelets (PLT), aspartate aminotransferase (AST), alanine aminotransferase (ALT) and blood urea nitrogen (BUN) in the clinical laboratory at our hospital.

The subject of a further series is MDR in colon cancer. Description: Preliminary experiment on Chansu ingredients and MDR. It is filed as cell-based. The conditions noted are these: six active ingredients of Chansu.
The subject of a further series is HCT8/ADR xenografts. Kind of series: HCT8/ADR nude mouse xenograft model. The conditions noted are these: for tumor size versus saline: q3d×5, alone.
Series [6] deals with LoVo/ADR cells (ABCB1-overexpressing). Kind of series: cells. The conditions noted are these: Homo sapiens.
Procedure: as §1
Series [7] concerns HCT8/ADR cells (ABCB1-overexpressing). Description: cells. The conditions noted are these: Homo sapiens.
Procedure: as §1
Series [8] has as its system HCT8/ABCB1 cells (ABCB1-transfected). Kind of series: cells. The conditions noted are these: Homo sapiens.
Procedure: as §2
In the next series the test system is ABCB1. Kind of series: ABCB1-mediated drug transport assay (Caco-2 monolayer). The conditions noted are these: human. Background: Caco-2 cells form a polarised layer with tight junctions and transporters.
Setting [9] is: Homo sapiens, HCT-8, 48 h, read-out: IC50 of DOX.
The mark [10] stands for this setting: HCT-8, 48 h, read-out: IC50 of DOX.
Setting [11] is: Homo sapiens, HCT-8, read-out: IC50 of MIT.

In general, IC50 refers to the point on the concentration scale where inhibition reaches its midpoint. The term Papp A→B denotes how fast a substance crosses the layer from the apical side. The term Papp B→A denotes how fast a substance crosses the layer from the basolateral side. By efflux ratio is commonly meant the permeability from basolateral to apical divided by that in the opposite direction, in the common usage.

Like-named read-outs stand apart in the source and are kept apart here.

Procedure for HCT8 cells: as §1
Procedure for HCT8/pcDNA3.1 cells: as §2
Procedure for LoVo cells: as §1

Consider “5(6)-carboxy-2′,7′-dichlorofluorescein [CDCF]”, for which the IC50 in the series on LoVo cells (CDCF alone, read-out: IC50 of CDCF) came to 1020 ± 110 µM; in the series with HCT8 cells (HCT8, CDCF alone, read-out: IC50 of CDCF), 700000 ± 100000 nM; with HCT8/pcDNA3.1 cells (HCT8/pcDNA3.1, CDCF alone, read-out: IC50 of CDCF), 910000 ± 180000 nM; in series [1] (read-out: IC50 of CDCF, LoVo/ADR, CDCF alone), 1.13 ± 0.05 mM; in series [2] (read-out: IC50 of CDCF, HCT8/ADR, CDCF alone), 960 ± 160 µM; in series [3] (read-out: IC50 of CDCF, HCT8/ABCB1, CDCF alone) it was 1.08 ± 0.14 mM.

On to `C[C@]12CC[C@H](O)C[C@H]1CC[C@@H]1[C@@H]2CC[C@]2(C)[C@@H](c3ccc(=O)oc3)CC[C@]12O` [BU, Bufalin], for which the “non-toxic concentration (survival rate higher than 80%), maximum for reversal assays” value in series [4] is “up to 20 nM”. In addition, the toxicity on mice result in series [5] (BU 0.1mg/kg) is on record as “did not induce any toxicity”. Also, the “effect on MDR” value with MDR in colon cancer was “could effectively reverse MDR”. In addition, the “tumor size versus saline” value in the series on HCT8/ADR xenografts (BU 0.1 mg/kg, i.p.) was “No significant difference”. The “ABCB1 expression in tumor tissue (IHC)” value in the series with HCT8/ADR xenografts (HCT8/ADR xenografts, BU 0.1 mg/kg) is on record as “inhibit ABCB1 expression in vivo”.

For the compound `COc1cccc2c1C(=O)c1c(O)c3c(c(O)c1C2=O)C[C@@](O)(C(=O)CO)C[C@@H]3O[C@H]1C[C@H](N)[C@H](O)[C@H](C)O1` [DOX, doxorubicin], the “fold-reversal of MDR” value in the series on LoVo cells (DOX alone (reference)) is reported as 1.00; in the series on HCT8 cells (HCT8, DOX alone (reference)), 1.00; in the series on HCT8/pcDNA3.1 cells (HCT8/pcDNA3.1, DOX alone (reference)), 1.00; in [1], 16.28 ± 0.54 (1.00); in series [2], 7.20 ± 0.80 (1.00); in [3] it was 13.35 ± 1.15 (1.00). For the same compound, the IC50 with LoVo cells (Homo sapiens, 48 h, read-out: IC50 of DOX) is 1.87 ± 0.15 µM; with HCT8 cells (setting [9]), 550 ± 140 nM; in the series on HCT8/pcDNA3.1 cells (setting [9]) it was 670 ± 120 nM; in series [6] (48 h, read-out: IC50 of DOX), 16.3 ± 0.54 µM; in series [7] (setting [10]), 7.2 ± 0.8 µM; in series [8] (setting [10]) it was 13.3 ± 1.15 µM. Besides, the “significant toxicity: deaths” value in [5] (DOX 0.5 mg/kg and DOX 1.0 mg/kg groups, with weight loss) is 2 deaths out of 6 mice. Moreover, in series [5] (high concentration DOX (0.5, 1.0 mg/kg)), the “alanine transaminase (ALT) and aspartate transaminase (AST)” value was “significantly elevated”. Further, the “tumor size versus saline” value in the series with HCT8/ADR xenografts (DOX 0.1 mg/kg, i.p.) is “No significant difference”. In addition, the tumor growth inhibition result in the series on HCT8/ADR xenografts (DOX 0.1, 0.5, 1.0 mg/kg, i.p., q3d×5) was “inhibit tumor growth with a concentration-dependent pattern”. In the series with ABCB1, the Papp A→B at 120 min, 20 μM stood at 0.68 ± 0.18 ×10⁻⁶ cm/s. In the series on ABCB1, this compound displayed an apparent permeability from basolateral to apical (Papp B→A) at 120 min, 20 μM of 3.91 ± 0.68 ×10⁻⁶ cm/s. For the same compound, the efflux ratio at 120 min, 20 μM with ABCB1 is 5.75.

On to `O=C1c2c(O)ccc(O)c2C(=O)c2c(NCCNCCO)ccc(NCCNCCO)c21` [MIT, mitoxantrone], for which the IC50 stood at 1.05 ± 0.09 µM in the series with LoVo cells (Homo sapiens, read-out: IC50 of MIT); 850 ± 150 nM in the series on HCT8 cells (setting [11]); 880 ± 280 nM with HCT8/pcDNA3.1 cells (setting [11]); 1.23 ± 0.08 µM in [6] (read-out: IC50 of MIT); 1.02 ± 0.28 µM in [7] (HCT-8, read-out: IC50 of MIT); 1 ± 0.2 µM in [8] (HCT-8, read-out: IC50 of MIT).

Consider `CC(=O)O[C@H]1[C@H]2O[C@]23[C@@H]2CC[C@@H]4C[C@@H](O)CC[C@]4(C)[C@H]2CC[C@]3(C)[C@H]1c1ccc(=O)oc1` [cinobufagin], for which, in the series with MDR in colon cancer, the “effect on MDR” value is reported as “could effectively reverse MDR”.
